# Data as given in article PMC9005681, “Use of AD Informer Set compounds to explore validity of novel targets in Alzheimer's disease pathology” (Alzheimer's & Dementia : Translational Research & Clinical …, 2022).
# Experiments:
# [1] = biological target: T1, cloned human or rodent CNS receptors, channels, and transporters (PDSP panel) (Homo sapiens, UniProt P35372); experiment: PDSP GPCR panel primary binding assays at 10 μM; conditions: MOR, primary assay
# T1 construct: expressed in transfected cells
# T1 sequence (P35372 whole entry): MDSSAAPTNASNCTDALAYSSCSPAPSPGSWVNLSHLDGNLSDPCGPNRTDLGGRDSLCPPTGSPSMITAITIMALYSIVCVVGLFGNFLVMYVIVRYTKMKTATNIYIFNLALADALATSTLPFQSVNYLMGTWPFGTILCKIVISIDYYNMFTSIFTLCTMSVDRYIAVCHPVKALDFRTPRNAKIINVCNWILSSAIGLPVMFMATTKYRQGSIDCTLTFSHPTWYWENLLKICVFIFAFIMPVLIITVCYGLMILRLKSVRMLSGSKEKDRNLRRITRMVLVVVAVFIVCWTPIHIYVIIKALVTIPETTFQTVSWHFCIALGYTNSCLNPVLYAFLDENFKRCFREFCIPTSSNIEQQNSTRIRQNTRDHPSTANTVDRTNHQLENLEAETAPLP
# Experimental: (§1) GPCR panel: Screening against the receptors within the PDSP panel offers an assessment of off-target pharmacological activity at cloned human or rodent CNS receptors, channels, and transporters that could confound CNS-related phenotypes. A total of 46–47 primary binding assays were run in quadruplicate on these compounds at 10 μM, with follow-up secondary binding assays in 11-point dose-response in triplicate for select compounds versus select receptors. Secondary binding assays were executed for all receptors where test compound displaced an average of >50% of radio-labeled standard ligand. As an exception, no secondary assays were carried out for H3, PBR, or GABAA. […]
# [2] = biological target: T2, cloned human or rodent CNS receptors, channels, and transporters (PDSP panel) (Homo sapiens, UniProt P46098); experiment: PDSP GPCR panel primary binding assays at 10 μM; conditions: 5-HT3, primary assay
# T2 construct: expressed in transfected cells
# T2 sequence (P46098 24-478): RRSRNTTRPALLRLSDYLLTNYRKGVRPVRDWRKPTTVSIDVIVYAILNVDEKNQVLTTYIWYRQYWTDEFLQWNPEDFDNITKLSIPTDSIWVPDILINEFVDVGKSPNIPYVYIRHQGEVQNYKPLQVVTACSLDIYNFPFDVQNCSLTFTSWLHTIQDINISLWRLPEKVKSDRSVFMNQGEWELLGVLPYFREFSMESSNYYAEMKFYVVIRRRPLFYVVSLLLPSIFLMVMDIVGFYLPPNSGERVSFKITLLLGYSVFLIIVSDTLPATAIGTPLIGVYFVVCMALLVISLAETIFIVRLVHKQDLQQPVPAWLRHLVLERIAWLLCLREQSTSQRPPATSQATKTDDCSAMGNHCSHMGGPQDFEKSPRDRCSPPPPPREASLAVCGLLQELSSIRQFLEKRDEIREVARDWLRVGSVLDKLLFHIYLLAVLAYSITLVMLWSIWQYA
# Experimental: as §1
# [3] = biological target: T3, cloned human or rodent CNS receptors, channels, and transporters (PDSP panel) (Homo sapiens, UniProt P25021); experiment: PDSP GPCR panel primary binding assays at 10 μM; conditions: H2, primary assay
# T3 construct: expressed in transfected cells
# T3 sequence (P25021 whole entry): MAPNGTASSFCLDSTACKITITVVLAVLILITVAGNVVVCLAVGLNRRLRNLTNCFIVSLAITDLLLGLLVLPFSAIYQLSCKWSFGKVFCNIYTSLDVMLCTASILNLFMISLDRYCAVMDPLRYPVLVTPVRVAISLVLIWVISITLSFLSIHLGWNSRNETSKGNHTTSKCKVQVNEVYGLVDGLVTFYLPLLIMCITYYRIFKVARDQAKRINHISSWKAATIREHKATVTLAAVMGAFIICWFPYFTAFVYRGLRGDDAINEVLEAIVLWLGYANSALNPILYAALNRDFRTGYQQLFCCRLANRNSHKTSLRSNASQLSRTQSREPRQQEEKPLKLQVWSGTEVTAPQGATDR
# Experimental: as §1
# [4] = biological target: T4, cloned human or rodent CNS receptors, channels, and transporters (PDSP panel) (Homo sapiens, UniProt P08172); experiment: PDSP GPCR panel primary binding assays at 10 μM; conditions: M2, primary assay
# T4 construct: expressed in transfected cells
# T4 sequence (P08172 1-466): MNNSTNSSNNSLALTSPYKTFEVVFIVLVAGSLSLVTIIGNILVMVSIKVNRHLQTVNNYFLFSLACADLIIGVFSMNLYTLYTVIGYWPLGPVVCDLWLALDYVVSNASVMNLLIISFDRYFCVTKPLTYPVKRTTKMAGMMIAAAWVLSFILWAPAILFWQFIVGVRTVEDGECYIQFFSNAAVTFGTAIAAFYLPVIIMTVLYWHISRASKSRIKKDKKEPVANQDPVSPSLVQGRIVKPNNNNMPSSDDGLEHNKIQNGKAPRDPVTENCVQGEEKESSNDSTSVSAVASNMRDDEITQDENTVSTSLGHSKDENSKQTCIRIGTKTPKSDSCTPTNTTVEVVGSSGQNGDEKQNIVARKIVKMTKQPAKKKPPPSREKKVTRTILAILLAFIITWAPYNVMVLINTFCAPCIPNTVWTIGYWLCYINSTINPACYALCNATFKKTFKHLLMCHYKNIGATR
# Experimental: as §1
# [5] = biological target: T5, cloned human or rodent CNS receptors, channels, and transporters (PDSP panel) (Homo sapiens, UniProt P41145); experiment: PDSP GPCR panel primary binding assays at 10 μM; conditions: KOR, primary assay
# T5 construct: expressed in transfected cells
# T5 sequence (P41145 whole entry): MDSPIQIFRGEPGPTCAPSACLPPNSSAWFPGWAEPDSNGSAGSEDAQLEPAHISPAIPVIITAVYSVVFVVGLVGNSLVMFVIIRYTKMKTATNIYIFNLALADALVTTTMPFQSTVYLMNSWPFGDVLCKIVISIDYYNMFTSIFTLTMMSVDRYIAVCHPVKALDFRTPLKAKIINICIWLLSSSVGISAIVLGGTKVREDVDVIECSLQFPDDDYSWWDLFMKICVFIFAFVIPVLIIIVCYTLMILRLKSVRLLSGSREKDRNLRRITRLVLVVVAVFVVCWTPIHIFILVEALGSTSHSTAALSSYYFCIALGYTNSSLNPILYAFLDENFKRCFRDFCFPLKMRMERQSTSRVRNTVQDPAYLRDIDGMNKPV
# Experimental: as §1
# [6] = biological target: T6, cloned human or rodent CNS receptors, channels, and transporters (PDSP panel) (Homo sapiens, UniProt P41595); experiment: PDSP GPCR panel primary binding assays at 10 μM; conditions: 5-HT2B, primary assay
# T6 construct: expressed in transfected cells
# T6 sequence (P41595 whole entry): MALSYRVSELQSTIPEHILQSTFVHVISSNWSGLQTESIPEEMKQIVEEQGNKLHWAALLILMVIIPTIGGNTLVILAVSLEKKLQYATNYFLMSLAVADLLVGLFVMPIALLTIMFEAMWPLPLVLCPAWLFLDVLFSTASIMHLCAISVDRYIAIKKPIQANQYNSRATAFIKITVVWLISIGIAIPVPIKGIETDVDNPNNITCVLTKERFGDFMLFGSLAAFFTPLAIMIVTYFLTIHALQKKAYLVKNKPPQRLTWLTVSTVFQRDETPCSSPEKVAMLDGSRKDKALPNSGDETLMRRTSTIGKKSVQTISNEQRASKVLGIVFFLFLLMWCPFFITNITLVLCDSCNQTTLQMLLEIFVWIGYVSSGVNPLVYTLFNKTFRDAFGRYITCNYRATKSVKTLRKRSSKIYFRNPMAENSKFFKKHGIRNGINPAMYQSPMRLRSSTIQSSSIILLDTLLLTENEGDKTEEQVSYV
# Experimental: as §1
# [7] = biological target: T7, cloned human or rodent CNS receptors, channels, and transporters (PDSP panel) (Homo sapiens, UniProt P08912); experiment: PDSP GPCR panel primary binding assays at 10 μM; conditions: M5, primary assay
# T7 construct: expressed in transfected cells
# T7 sequence (P08912 1-532): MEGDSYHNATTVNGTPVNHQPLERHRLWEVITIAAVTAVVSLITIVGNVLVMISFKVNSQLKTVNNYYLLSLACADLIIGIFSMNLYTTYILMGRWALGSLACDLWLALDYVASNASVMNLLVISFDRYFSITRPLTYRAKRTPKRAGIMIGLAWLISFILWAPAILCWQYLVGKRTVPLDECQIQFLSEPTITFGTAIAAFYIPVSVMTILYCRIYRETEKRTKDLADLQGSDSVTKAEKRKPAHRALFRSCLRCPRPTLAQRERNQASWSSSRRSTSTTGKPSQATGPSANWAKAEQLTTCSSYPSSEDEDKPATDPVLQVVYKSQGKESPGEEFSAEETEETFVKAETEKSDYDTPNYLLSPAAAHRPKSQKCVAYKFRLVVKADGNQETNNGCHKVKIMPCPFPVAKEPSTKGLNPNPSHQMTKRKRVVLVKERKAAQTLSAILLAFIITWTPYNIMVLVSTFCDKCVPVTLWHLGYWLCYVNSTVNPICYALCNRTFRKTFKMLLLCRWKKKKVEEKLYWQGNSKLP
# Experimental: as §1
# [8] = biological target: T8, cloned human or rodent CNS receptors, channels, and transporters (PDSP panel) (Homo sapiens, UniProt P21918); experiment: PDSP GPCR panel primary binding assays at 10 μM; conditions: D5, primary assay
# T8 construct: expressed in transfected cells
# T8 sequence (P21918 whole entry): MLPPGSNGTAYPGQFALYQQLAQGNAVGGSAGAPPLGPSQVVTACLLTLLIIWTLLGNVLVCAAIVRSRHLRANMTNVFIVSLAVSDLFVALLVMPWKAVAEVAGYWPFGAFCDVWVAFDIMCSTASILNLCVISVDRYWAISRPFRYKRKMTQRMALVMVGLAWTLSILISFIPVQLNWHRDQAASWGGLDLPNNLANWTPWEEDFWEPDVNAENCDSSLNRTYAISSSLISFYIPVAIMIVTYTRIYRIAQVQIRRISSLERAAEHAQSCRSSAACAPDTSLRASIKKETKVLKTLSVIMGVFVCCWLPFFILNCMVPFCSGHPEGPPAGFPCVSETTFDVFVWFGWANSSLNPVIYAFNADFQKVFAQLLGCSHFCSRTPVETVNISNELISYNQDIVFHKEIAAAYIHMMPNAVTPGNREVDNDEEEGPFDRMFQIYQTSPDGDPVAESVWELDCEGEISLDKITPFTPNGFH
# Experimental: as §1
# [9] = aqueous, neutral pH (7.4); cited from earlier work
# cellular system = tested on: cellular system; parameters: method as in column References for potency and dosing (the 5th table c13); conditions: published data; References for potency and dosing; cited from earlier work
smiles,measurement,setting,value
"O=C(NC1CC1)C(=O)C(Cc1ccccc1)NC(=O)[C@H]1CCC(=O)N1Cc1ccccc1 (stereo partly drawn) [UNC10302676A, ABT-957 (Alicapistat)]",Mean %,[1]; mean inhibition,7.04%
same,Inhibition 1,[1]; replicate 1,10.32%
same,Inhibition 2,[1]; replicate 2,13.58%
same,Inhibition 3,[1]; replicate 3,-4.06%
same,Inhibition 4,[1]; replicate 4,8.3%
same,Mean %,[2]; mean inhibition,-3.28%
same,Inhibition 1,[2]; replicate 1,-2.95%
same,Inhibition 2,[2]; replicate 2,-3.65%
same,Inhibition 3,[2]; replicate 3,-8.86%
same,Inhibition 4,[2]; replicate 4,2.33%
same,Mean %,[3]; mean inhibition,2.47%
same,Inhibition 1,[3]; replicate 1,-6.09%
same,Inhibition 2,[3]; replicate 2,2.81%
same,Inhibition 3,[3]; replicate 3,-1.92%
same,Inhibition 4,[3]; replicate 4,15.07%
same,Mean %,[4]; mean inhibition,2.92%
same,Inhibition 1,[4]; replicate 1,7.16%
same,Inhibition 2,[4]; replicate 2,-5.38%
same,Inhibition 3,[4]; replicate 3,7.65%
same,Inhibition 4,[4]; replicate 4,2.24%
same,Mean %,[5]; mean inhibition,-23.29%
same,Inhibition 1,[5]; replicate 1,-17.69%
same,Inhibition 2,[5]; replicate 2,-22.73%
same,Inhibition 3,[5]; replicate 3,-22.5%
same,Inhibition 4,[5]; replicate 4,-30.23%
same,Mean %,[6]; mean inhibition,-32.15%
same,Inhibition 1,[6]; replicate 1,-14.32%
same,Inhibition 2,[6]; replicate 2,-33.19%
same,Inhibition 3,[6]; replicate 3,-45.78%
same,Inhibition 4,[6]; replicate 4,-35.29%
same,Mean %,[7]; mean inhibition,-3.53%
same,Inhibition 1,[7]; replicate 1,2.18%
same,Inhibition 2,[7]; replicate 2,-7.48%
same,Inhibition 3,[7]; replicate 3,-4.57%
same,Inhibition 4,[7]; replicate 4,-4.26%
same,Mean %,[8]; mean inhibition,-6.38%
same,Inhibition 1,[8]; replicate 1,0%
same,Inhibition 2,[8]; replicate 2,3.82%
same,Inhibition 3,[8]; replicate 3,-18.95%
same,Inhibition 4,[8]; replicate 4,-10.39%
same,Kinetic solubility,[9],176.5 µM
same,Reported as cell active (<10 μM),cellular system,Y (Published data supports that the compound is active in a cellular system when dosed at 10 μM (Y/N))
